Data: patent US20180208622A1, “STABLE CRYSTALLINE FORM OF REGADENOSON” (SUN PHARMACEUTICAL INDUSTRIES LIMITED, priority 2015, published 2018)
Blank lines part the entries; values can stand above or below the compound they belong to.

Columns and labels:
[1] = WO2008143667A1, cited from earlier work
[2] = Stability studies of crystal Form S, followed by XRPD; format: physicochemical
Experimental: XRD: X-ray powder diffraction analyses were carried out on a PANalytical Empyrean X-ray powder diffractometer using Cu K alpha radiation. The instrument was equipped with a line focus X-ray tube, and the voltage and amperage were set to 45 kV and 40 mA respectively. The scanning rate was set as 10 second per step and step size is set as 0.01°. The diffractometer was equipped with Pixcel^1D solid state detector and rotating sample stage. X-ray diffractometer was used to record diffractogram from 4° to 40° (2-theta).

SMILES: CNC(=O)c1cnn(-c2nc(N)c3ncn([C@@H]4O[C@H](CO)[C@@H](O)[C@H]4O)c3n2)c1 [polymorph C, adenosine, 2-[4-[(methylamino)carbonyl]-1H-pyrazol-1-yl]]
behaviour at elevated temperatures ([1]; elevated temperatures): desolvates to an unstable form

change in XRPD under stability conditions ([2]; 25° C. and 60% relative humidity for more than 6 months (FIG. 3)): no significant change | change in XRPD in accelerated stability studies ([2]; 40° C. and 75% relative humidity for more than 2 months (FIG. 2)): did not change significantly | stability when stored ([2]; stored at 25° C. and 60% relative humidity for at least 6 months): stable
SMILES: CNC(=O)c1cnn(-c2nc(N)c3ncn([C@@H]4O[C@H](CO)C(O)C4O)c3n2)c1 (some centres unmarked) [Form S, adenosine, 2-[4-[(methylamino)carbonyl]-1H-pyrazol-1-yl]]

SMILES: CNC(=O)c1cnn(-c2nc(N)c3ncn([C@@H]4O[C@H](CO)[C@@H](O)[C@H]4O)c3n2)c1 [Form A, adenosine, 2-[4-[(methylamino)carbonyl]-1H-pyrazol-1-yl]]
stability of the crystalline form ([1]; among Form A, Form B, Form C and amorphous product): most stable form
